Assay results from patent US20230257435A1, “Wound Healing Composition and Uses Thereof” (AGENCY FOR SCIENCE, TECHNOLOGY AND RESEARCH, priority 2020, published 2023).

Tests used:
[1] = tested on: keratinocytes and dermal fibroblasts; experiment: In vitro scratch wound-healing assay; assay type: cell-based, human and mouse
Experimental: (§1) A confluent monolayer of control and Agrin depleted cells in a 6-well plate was subjected to a unidirectional scratch using a 20 μl pipette tip. This was followed by washing with 1×PBS at room temperature and incubation in complete culture media at 37° C. and 5% CO2 with or without sAgrin used as indicated. Phase contrast images of the wound area were taken periodically at the indicated time-points. For some wound-healing migration assays, keratinocytes were cultured on either soft or stiff substrates within a stencil barrier (Nalge Nunc., Inc) for 18 h. Upon removal of the barrier, the cells were allowed to migrate and imaged using an Axiovert 200 inverted microscope at indicated time-points.

mouse skin explants = experiment: Mouse skin explant assay (keratinocyte outgrowth); assay type: cell-based; conditions: soft matrix with 20 μg/ml sAgrin; MMP408 5 nM, 5 days
Experimental: Three days old ICR strain mouse pups were sacrificed and the hind skin on either side of the midline in the shoulder region was washed in 70% ethanol and excised using scalpel. The excised skin was washed in 70% ethanol and placed (dermis side down) on the pre-made gel substrates of defined stiffness, either in the absence or presence of 20 μg/ml sAgrin. The explants were allowed to adhere for 2 h before adding the keratinocyte culture medium (DMEM) containing 300 μM Ca^2+ as described previously^31. The keratinocyte outgrowth and the skin tissues regularly imaged under an Axiovert-200 inverted microscope and were subsequently fixed in 4% paraformaldehyde and immunostained for Keratin 17 antibody.
Tissue culture plates were coated with Col-T-gel (Fischer Scientific) of stiffness ranging from 0.8 KPa (soft) to 30 KPa (stiff) as per manufacturer recommendations and allowed to solidify for 40 min at 37° C. inside tissue culture incubators. Some experiments were performed with cells seeded on the poly-hydrogel plates of defined stiffness: 0.2 kPa and 16 kPa soft and hard polyhydrogels, respectively (CytoSoft, Advanced Biomatrix, Inc.,). The determination of stiffness of silicone substrates were done by the manufacturer as per previously published protocols. For certain experiments, indicated amounts of sAgrin was incorporated into the 0.8 KPa collagen gels before gelation process. Upon gelation, trypsinized cells or excised mouse skin explants were plated onto the gels of different stiffness either alone or containing sAgrin. The cells/tissues were incubated under standard culture condition with 500 μl recommended culture medium for the indicated days. The crossbow shaped micropatterns with fibronectin coated islands were generated by microlithography on a 19.5×19.5 mm coverslide from Cytoo, Inc., France. The micropatterns had surface areas of 800μ^2 or 1600μ^2, respectively. Fifty thousand cells after initial siRNA treatment was placed on the micropatterns for 4-6 h before processing them for immunofluorescence. […]

[2] = tested on: phosphorylated myosin light chain (pMLC); experiment: Actomyosin cables / pMLC activation after wound scratch; assay type: cell-based, human; conditions: 10 μm Blebbistatin 2 h before scratch
Experimental: Indicated cells post-manipulation were washed twice with cold Phosphate buffered saline (PBS) and lysed with cold 1% NP-40 lysis buffer supplemented with 1× protease inhibitor cocktail (Roche Applied Biosciences) for 15 mins at 4° C. The cell lysate was centrifuged at 13,000 rpm for 15 min. This was followed by protein estimation using Bradford reagent. Subsequently, […] of total protein was mixed with an equal volume of 2× Laemmli sample buffer and heated at 95° C. for 5 mins. This was followed by resolution with SDS-PAGE gel. The resolved proteins were transferred onto nitrocellulose membrane and blocked in 5% skimmed milk reconstituted in 1×PBS containing 0.1% Tween-20, and probed overnight with the respective primary antibody. The membrane was then washed with 1×PBS supplemented with 0.1% Tween-20: three times at 15 min intervals. This was followed by 1 h incubation in conjugated horseradish peroxidase HRP secondary antibody (Santa Cruz Biotechnology). Post-incubation, the blot was again washed three times as above and then overlaid with enhanced chemiluminescence (ECL) substrate (Pierce/Bio-Rad) and visualized on X-ray film by image processor or digitally by Chemidoc analyzer (Bio-Rad). The density of the various bands was quantified using the Image-J software.
Cells were cultured on eight-well chamber slides or coverslips over-night. Cells were then washed twice with PBS and fixed for 15 min with 4% paraformaldehyde. Subsequently, the cells were permeabilized for 15 min with 0.1% Triton X in Phosphate buffered saline containing 1 mM Ca^+2 and 1 mM Mg^+2 (PBSCM) at room temperature. The permeabilized cells were incubated with indicated antibodies in fluorescent dilution buffer (FDB) for 1-2 h at RT or overnight at 4° C., followed by 5 washes with PBSCM and incubation with secondary antibody; Alexa Fluor (Thermo Fisher Scientific) for 1 h at RT. Slides were again washed five times with PBSCM and mounted with Vectashield medium containing DAPI. The stained cells were then imaged by a Zeiss confocal microscope. The images were processed and analyzed by Zen blue software. Intensity measurements were acquired using tool selection parameter in image analysis within the Zen blue software.
as §1

pMLC = experiment: Force transmission via ligand conjugated magnetic beads; assay type: cell-based, human; conditions: siAgrin cells
Experimental: The ligands were conjugated to 4.5 μm epoxide paramagnetic beads (Dynabeads M-450 Epoxy, Thermo Fisher Scientific) according to the manufacturer's manual. Briefly, the beads were washed twice in 0.1 M sodium phosphate buffer, pH 7.4. Subsequently. 8×10^7 beads were conjugated to 20 μg sAgrin, BSA and FN per in 0.1 M sodium phosphate buffer at pH 7.4 for 16-18 h at 4° C. with gentle rotation throughout. The degree of protein conjugation to the beads was verified by a reducing SDS-PAGE gel analysis using a subset of ligand conjugated beads. The remaining beads were washed and subsequently stored in 0.1% BSA-phosphate buffered saline (PBS) pH 7.4 at 4° C. They were subsequently suspended in medium and added on the cells for 30 min at 37° C. After a brief wash with PBS to remove excess non-adherent beads, the cells were placed under a permanent neodymium magnet (J Magnetics, USA) at a distance of 6 mm apart for another 30 min that allowed a vertical tensile force in the magnitudes of ˜200 pN on the beads. The cells were then fixed in 4% paraformaldehyde, permeabilized and processed for immunofluorescence.

COC(=O)Nc1ccc2oc3cc(S(=O)(=O)N[C@H](C(=O)O)C(C)C)ccc3c2c1 [MMP408, reference compound]
migration of sAgrin induced K17 expressing keratinocytes ([1]; 5 nM MMP408, soft substrates and normal culture conditions): blunted the migration of sAgrin induced K17 expressing keratinocytes | sAgrin induced K17 expressing migratory outgrowth (mouse skin explants): abruptly abolished

Cc1ccc2c(c1)C(=O)C1(O)CCN(c3ccccc3)C1=N2 (centres unmarked) [blebbistatin, reference compound]
sAgrin induced actomyosin cables [2]: abolished | sAgrin induced migration post-wound injury ([1]; 10 μm Blebbistatin, 18 h post-wounding): abolished the sAgrin induced migration

B1: syndecan-4: Syndecan-4 conjugated to magnetic beads (protein, UniProt P31431 19-198, looked up)
Syndecan-4: ESIRETEVIDPQDLLEGRYFSGALPDDEDVVGPGQESDDFELSGSGDLDDLEDSMIGPEVVHPLVPLDNHIPERAGSGSQVPTEPKKLEENEVIPKRISPVEESEDVSNKVSMSSTVQGSNIFERTEVLAALIVGGIVGILFAVFLILLLMYRMKKKDEGSYDLGKKPIYKKAPTNEFYA
modifications: conjugated to magnetic beads
notes: Syndecan-4 conjugated to magnetic beads
rescue of reduced pMLC in Agrin depleted cells by force through ligand beads (pMLC): rather insufficient to rescue myosin mechanotension
